Patent publication US20210137948A1, “TREATMENT OF INFECTIONS CAUSED BY NEISSERIA GONOCOCCUS USING A HALOGENATED SALICYLANILIDE” (priority 2018, published 2021)
Where two headings read alike, the source gives them in different places.

Columns and labels:
rabbits = settings: p.o.; cited from earlier work
rats = settings: cited from earlier work
[1] = cited from earlier work
[2] = test system: Neisseria gonorrhoeae CDC panel consisting of 48 isolates; assay: Agar dilution MIC, CDC panel of 48 isolates (Example 2); assay type: cell-based; settings: for MIC: Neisseria gonorrhoeae, read-out: Minimal inhibitory concentration
Protocol: Neisseria gonorrhoeae (Neisseria gonocossus) were tested for antimicrobial susceptibility using agar dilution as described by the Clinical and Laboratory Standards Institute (CLSI), see reference (4).
The concentrations tested for each compound encompass the reported interpretive breakpoints and consist of 8 or more doubling dilutions, ensuring that there is one dilution below the lowest value of QC.
GC agar base +1% defined growth supplement.
Initial screening strains: Neisseria gonorrhoeae CDC panel consisting of 48 isolates. The strains were provided by Clinical and Environmental Microbiology Branch, Division of Healthcare Quality Promotion, CDC (Atlanta, US).
Dilution scheme for reference method: Prepare intermediate 100× antimicrobial agent solutions by making successive serial twofold dilutions. Then, add one part of the 100× antimicrobial solution to […] of molten agar. Plates containing no antimicrobial agent solutions are made for use as growth controls. It is important that no longer than one hour elapses between the time that the stock solution is thawed, the dilutions are prepared and added to the base medium and the plates are poured, see reference (5).
• Add appropriate dilutions of antimicrobial solution to molten test agars that have been allowed to equilibrate in a water bath to 50° C. • Mix the agar and antimicrobial solution thoroughly and pour (20 mL) into Petri dishes on a level surface. Pour quickly after mixing to prevent cooling and partial solidification in the mixing container. Avoid generating bubbles when mixing. • Allow the agar to solidify at room temperature and store them in sealed plastic bags at 2 to 8° C. for up to five days. Preferably use with 24 hours. • Allow plates stored at 2 to 8° C. to equilibrate to room temperature before use. Make certain that the agar surface is dry before inoculating the plates. If necessary, place the plates in an incubator or laminar flow hood for approximately 30 minutes with their lids ajar to hasten drying of the agar surface.
Inoculum preparation: Prepare a standardized inoculum for the agar dilution method by suspending isolated colonies of Neisseria gonorrhoeae selected from an 18-24 hour-old chocolate agar plate directly in Mueller Hinton Broth (MHB) to achieve the density equivalent to a 0.5 McFarland standard and adjusted to obtain a cell density of ˜1-2×10^8 CFU/mL. For N. gonorrhoeae, the McFarland solutions are made at a reading of ˜0.80 in densitometer (Grant Instruments DEN-1B Densitometer) because these values have been evaluated and correspond to the desired CFU/mL count.
Dilution of inoculum suspension: Cultures adjusted to the 0.5 McFarland standard contain approximately 1 to 2×10^8 CFU/mL with most species, and the final inoculum required is 10^4 CFU per spot. When using replicators with 3-mm pins that deliver ˜2.5 μL, dilute the 0.5 McFarland suspension 1:10 in sterile MHB to obtain a concentration of 10^7 CFU/mL. The final inoculum on the agar will be approximately 10^4 CFU per spot. Use the adjusted suspensions for final inoculation within 60 minutes of preparation, see reference (5).
The following procedure was followed: • Arrange the tubes containing the adjusted and diluted bacterial suspensions (10^7 CFU/mL) in order in a rack. Place an aliquot of each well-mixed suspension into the corresponding well in the replicator inoculum block (if being used). • Mark the agar plates for orientation of the inoculum spots. • Apply an aliquot of each inoculum (2.5 μL) to the agar surface, either with an inocula-replicating device or pipette, to obtain a final concentration of ˜10^4 CFU/spot. • Inoculate a growth-control plate (no antimicrobial agent) first and then, starting with the lowest concentration, inoculate the plates containing the different antimicrobial concentrations. […]

mice = settings: p.o.; cited from earlier work
[3] = via the urinary tract or by enzymatic metabolism in the liver; cited from earlier work

O=C(Nc1ccc([N+](=O)[O-])cc1Cl)c1cc(Cl)ccc1O [Niclosamide, 2′,5-dichloro-4′-nitrosalicylanilide]
LD50 (rabbits): 5000 mg/kg
LD50 (rats; dermal): 2000 mg/kg
LD50 (rats; p.o.): 5000 mg/kg
solubility in water [1]: poorly soluble
MIC ([2]; Neisseria gonorrhoeae strain CDC # 165): ≤ 0.25 µg/mL
MIC ([2]; Neisseria gonorrhoeae strain CDC # 166): ≤ 0.25 µg/mL
MIC ([2]; Neisseria gonorrhoeae strain CDC # 167): ≤ 0.25 µg/mL
MIC ([2]; Neisseria gonorrhoeae strain CDC # 169): ≤ 0.25 µg/mL
MIC ([2]; Neisseria gonorrhoeae strain CDC # 170): ≤ 0.25 µg/mL
MIC ([2]; Neisseria gonorrhoeae strain CDC # 171): ≤ 0.25 µg/mL
MIC ([2]; Neisseria gonorrhoeae strain CDC # 172): ≤ 0.25 µg/mL
MIC ([2]; Neisseria gonorrhoeae strain CDC # 173): ≤ 0.25 µg/mL
MIC ([2]; Neisseria gonorrhoeae strain CDC # 174): ≤ 0.25 µg/mL
MIC ([2]; Neisseria gonorrhoeae strain CDC # 175): ≤ 0.25 µg/mL
MIC ([2]; Neisseria gonorrhoeae strain CDC # 176): ≤ 0.25 µg/mL
MIC ([2]; Neisseria gonorrhoeae strain CDC # 177): ≤ 0.25 µg/mL
MIC ([2]; Neisseria gonorrhoeae strain CDC # 178): ≤ 0.25 µg/mL
MIC ([2]; Neisseria gonorrhoeae strain CDC # 179): ≤ 0.25 µg/mL
MIC ([2]; Neisseria gonorrhoeae strain CDC # 180): ≤ 0.25 µg/mL
MIC ([2]; Neisseria gonorrhoeae strain CDC # 181): ≤ 0.25 µg/mL
MIC ([2]; Neisseria gonorrhoeae strain CDC # 182): ≤ 0.25 µg/mL
MIC ([2]; Neisseria gonorrhoeae strain CDC # 183): ≤ 0.25 µg/mL
MIC ([2]; Neisseria gonorrhoeae strain CDC # 184): ≤ 0.25 µg/mL
MIC ([2]; Neisseria gonorrhoeae strain CDC # 185): ≤ 0.25 µg/mL
MIC ([2]; Neisseria gonorrhoeae strain CDC # 186): ≤ 0.25 µg/mL
MIC ([2]; Neisseria gonorrhoeae strain CDC # 187): ≤ 0.25 µg/mL
MIC ([2]; Neisseria gonorrhoeae strain CDC # 188): ≤ 0.25 µg/mL
MIC ([2]; Neisseria gonorrhoeae strain CDC # 189): ≤ 0.25 µg/mL
MIC ([2]; Neisseria gonorrhoeae strain CDC # 190): ≤ 0.25 µg/mL
MIC ([2]; Neisseria gonorrhoeae strain CDC # 191): ≤ 0.25 µg/mL
MIC ([2]; Neisseria gonorrhoeae strain CDC # 192): ≤ 0.25 µg/mL
MIC ([2]; Neisseria gonorrhoeae strain CDC # 193): ≤ 0.25 µg/mL
MIC ([2]; Neisseria gonorrhoeae strain CDC # 194): ≤ 0.25 µg/mL
MIC ([2]; Neisseria gonorrhoeae strain CDC # 195): ≤ 0.25 µg/mL
MIC ([2]; Neisseria gonorrhoeae strain CDC # 196): ≤ 0.25 µg/mL
MIC ([2]; Neisseria gonorrhoeae strain CDC # 198): ≤ 0.25 µg/mL
MIC ([2]; Neisseria gonorrhoeae strain CDC # 199): ≤ 0.25 µg/mL
MIC ([2]; Neisseria gonorrhoeae strain CDC # 200): ≤ 0.25 µg/mL
MIC ([2]; Neisseria gonorrhoeae strain CDC # 201): ≤ 0.25 µg/mL
MIC ([2]; Neisseria gonorrhoeae strain CDC # 202): ≤ 0.25 µg/mL
MIC ([2]; Neisseria gonorrhoeae strain CDC # 203): ≤ 0.25 µg/mL
MIC ([2]; Neisseria gonorrhoeae strain CDC # 204): ≤ 0.25 µg/mL
MIC ([2]; Neisseria gonorrhoeae strain CDC # 205): ≤ 0.25 µg/mL
MIC ([2]; Neisseria gonorrhoeae strain CDC # 206): ≤ 0.25 µg/mL
MIC ([2]; Neisseria gonorrhoeae strain CDC # 207): ≤ 0.25 µg/mL
MIC ([2]; Neisseria gonorrhoeae strain CDC # 208): ≤ 0.25 µg/mL
MIC ([2]; Neisseria gonorrhoeae strain CDC # 209): ≤ 0.25 µg/mL
MIC ([2]; Neisseria gonorrhoeae strain CDC # 210): ≤ 0.25 µg/mL
MIC ([2]; Neisseria gonorrhoeae strain CDC # 211): ≤ 0.25 µg/mL
MIC ([2]; Neisseria gonorrhoeae strain CDC # 212): ≤ 0.25 µg/mL
MIC ([2]; Neisseria gonorrhoeae strain CDC # 213): ≤ 0.25 µg/mL
MIC ([2]; Neisseria gonorrhoeae strain CDC # 214): ≤ 0.25 µg/mL
in vitro activity (in words) ([2]; against N. gonococcus (N. gonorrhoeae), Example 2 conclusion): Good in vitro activity
LD50 (mice): > 5000 mg/kg
clearance from the bloodstream [3]: quickly cleared
